The text below walks through data of patent US20180111991A1, “MODULATORS OF ACTIVIN AND METHODS FOR MODULATING IMMUNE RESPONSES AND T FOLLICULAR HELPER CELLS” (LA JOLLA INSTITUTE FOR ALLERGY AND IMMUNOLOGY, priority 2014, published 2018).

The subject of one assay is SMAD2/3. In words: Analysis of phosphorylated SMAD2/3 in tonsil CD4 T cells. The format is cell-based, human. As to conditions: for P-SMAD induction: activin A. The source says: Fresh PBMCs and tonsil mononuclear cells were serum-starved over night in AIM-V medium. […] Following stimulation, the cells were fixed in BD Phosflow™ Fix Buffer I (BD Biosciences), then permeabilized using BD Phosflow™ Perm Buffer III (BD Biosciences) following manufacture's instruction.

Another assay has as its system human naïve CD4 T cells. As to the kind of experiment: Intracellular cytokine staining after PMA/Ionomycin restimulation. Type of assay: cell-based. As for the experimental part:
For surface staining, primary-staining panels used for phenotypic analysis or for cell sorting known in the art were used. For the intranuclear staining: cells were treated with the FoxP3 Fixation/Permeabilization kit (eBioscience) and stained in Permeabilization buffer (eBioscience). For cytokine staining: day 3 or day 5 in vitro differentiated cells (specified in the main text or in figure legends) cells were stimulated for 5 hours at 37° C. with Phorbol 12-myristate 13-acetate (PMA, 25 ng/ml) and Ionomycin (1 μg/ml) in the presence of Brefeldin A (5 μg/ml). Cells were fixed with PBS 2% FBS, 1% PFA and permeabilized with PBS 2% FBS, 0.5% Saponin (from quillaja bark, Sigma-Aldrich). Samples were analyzed on a LSR Fortessa Cell Analyzer (BD, Bioscience). Flow cytometry data were analyzed with FlowJo (Tree Star). For cell sorting, cells were sorted using sorted using a FACS Aria (BD, Bioscience).

Regarding “activin A: commercial recombinant cytokine, homodimer of the INHBA gene product (inhibin beta A)”, the P-SMAD induction entry is “moderate but specific P-SMAD induction” in the assay with SMAD2/3 (tonsil PD-1intCXCR5int mTfh cells) and “did not” with SMAD2/3 (tonsil fully mature GC Tfh cells). Moreover, the “phosphorylation of SMAD2/3” value in the assay on SMAD2/3 (tonsil naïve CD4 T cells cultured with activin A) was “quickly phosphorylated SMAD2/3”. Further, the IL-21 production result with human naïve CD4 T cells (cells cultured with activin A+IL-12, PMA/Ionomycin re-stimulation) is on record as “retained full IL-21 production potential”. Also, the “TNFα and LTα protein expression” value with human naïve CD4 T cells (day 3 cells, PMA/Ionomycin restimulation) is “superior ability of CD4 T cells cultured with activin A to express TNFα and LTα proteins”.
